Key:
Assay type in all cases: biochemical
Conditions in all cases: 15 nM tritium labelled cAMP, 1 h at room temperature, SPA beads
PDE1A = PDE1A (Homo sapiens, UniProt P54750); assay: PDE1 Inhibition Assay, PDE1A (SPA)
Procedure: (§1) PDE1A, PDE1B and PDE1C assays were performed as follows: the assays was performed in 60 μL samples containing a fixed amount of the PDE1 enzym1 (sufficient to convert 20-25% of the cyclic nucleotide substrate), a buffer (50 mM HEPES pH 7.6; 10 mM MgCl2; 0.02% Tween20), 0.1 mg/ml BSA, 15 nM tritium labelled cAMP and varying amounts of inhibitors. Reactions were initiated by addition of the cyclic nucleotide substrate, and reactions were allowed to proceed for 1 h at room temperature before being terminated through mixing with 20 μL (0.2 mg) yttrium silicate SPA beads (PerkinElmer). The beads were allowed to settle for 1 h in the dark before the plates were counted in a Wallac 1450 Microbeta counter. The measured signals were converted to activity relative to an uninhibited control (100%) and IC50 values were calculated using XIFit (model 205, IDBS).

PDE1B = PDE1B (Homo sapiens, UniProt Q01064); assay: PDE1 Inhibition Assay, PDE1B (SPA)
Procedure: as §1

PDE1C = PDE1C (Homo sapiens, UniProt Q14123); assay: PDE1 Inhibition Assay, PDE1C (SPA)
Procedure: as §1

Sequence of PDE1A (P54750 whole entry): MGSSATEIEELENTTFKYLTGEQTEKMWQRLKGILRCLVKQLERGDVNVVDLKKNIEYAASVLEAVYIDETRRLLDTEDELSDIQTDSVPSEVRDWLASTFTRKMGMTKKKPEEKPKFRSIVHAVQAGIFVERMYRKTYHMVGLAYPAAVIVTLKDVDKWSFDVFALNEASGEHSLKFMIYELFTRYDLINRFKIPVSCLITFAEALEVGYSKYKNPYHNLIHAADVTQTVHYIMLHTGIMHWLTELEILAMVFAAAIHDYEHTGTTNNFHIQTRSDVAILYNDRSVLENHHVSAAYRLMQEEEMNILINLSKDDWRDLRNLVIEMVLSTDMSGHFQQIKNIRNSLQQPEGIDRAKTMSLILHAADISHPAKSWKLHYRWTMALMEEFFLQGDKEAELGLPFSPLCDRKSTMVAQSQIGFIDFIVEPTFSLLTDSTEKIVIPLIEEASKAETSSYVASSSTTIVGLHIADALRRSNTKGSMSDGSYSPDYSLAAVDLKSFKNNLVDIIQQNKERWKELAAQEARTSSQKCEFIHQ
Sequence of PDE1C (Q14123 whole entry): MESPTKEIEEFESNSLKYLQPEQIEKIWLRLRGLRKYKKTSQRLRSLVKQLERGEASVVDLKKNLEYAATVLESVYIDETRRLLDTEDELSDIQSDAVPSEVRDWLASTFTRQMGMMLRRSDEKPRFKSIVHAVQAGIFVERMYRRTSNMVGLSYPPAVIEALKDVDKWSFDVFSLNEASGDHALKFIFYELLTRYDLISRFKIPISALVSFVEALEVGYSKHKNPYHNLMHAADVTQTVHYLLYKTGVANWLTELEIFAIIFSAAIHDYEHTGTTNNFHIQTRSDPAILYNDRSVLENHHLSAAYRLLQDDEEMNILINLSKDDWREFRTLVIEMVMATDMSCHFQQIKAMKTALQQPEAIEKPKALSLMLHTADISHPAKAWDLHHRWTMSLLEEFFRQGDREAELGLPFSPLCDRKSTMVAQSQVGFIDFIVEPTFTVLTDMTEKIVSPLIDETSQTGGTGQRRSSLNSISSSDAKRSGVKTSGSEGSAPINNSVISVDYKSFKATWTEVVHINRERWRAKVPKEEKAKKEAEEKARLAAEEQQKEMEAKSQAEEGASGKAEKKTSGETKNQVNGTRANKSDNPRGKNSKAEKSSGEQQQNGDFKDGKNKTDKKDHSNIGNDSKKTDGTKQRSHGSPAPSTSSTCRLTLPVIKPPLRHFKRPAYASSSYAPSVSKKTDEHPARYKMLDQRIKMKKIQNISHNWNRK
Sequence of PDE1B (Q01064 whole entry): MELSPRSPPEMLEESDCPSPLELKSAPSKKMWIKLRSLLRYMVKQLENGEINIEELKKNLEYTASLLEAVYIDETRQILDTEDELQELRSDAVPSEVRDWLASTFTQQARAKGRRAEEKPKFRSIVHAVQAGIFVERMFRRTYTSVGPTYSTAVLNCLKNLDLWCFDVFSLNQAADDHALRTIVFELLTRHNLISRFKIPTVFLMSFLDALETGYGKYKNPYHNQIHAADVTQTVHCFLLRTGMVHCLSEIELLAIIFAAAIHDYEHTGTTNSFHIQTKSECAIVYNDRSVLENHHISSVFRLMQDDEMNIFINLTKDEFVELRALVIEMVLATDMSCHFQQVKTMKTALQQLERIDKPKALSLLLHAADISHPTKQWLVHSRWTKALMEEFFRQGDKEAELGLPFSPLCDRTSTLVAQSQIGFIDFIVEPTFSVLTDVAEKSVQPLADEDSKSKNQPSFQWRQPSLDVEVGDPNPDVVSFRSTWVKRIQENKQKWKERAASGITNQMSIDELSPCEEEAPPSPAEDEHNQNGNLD

| Compound | IC50 (PDE1A) | IC50 (PDE1B) | IC50 (PDE1C) |
| --- | --- | --- | --- |
| COc1ccc2c(NC3CCOC3)ncnc2c1OC (single isomer, unassigned) [1 Stereoisomer 1] | 280 nM | 54 nM | 280 nM |
| COc1ccc2c(NC3CCOC3)ncnc2c1OC (single isomer, unassigned) [1 Stereoisomer 2] | 1900 nM | 600 nM | 1200 nM |
| COc1ccc2c(NC3CCOC3C)ncnc2c1OC (single isomer, unassigned) [3 Stereoisomer 1] | 2500 nM | 1200 nM | 3000 nM |
| COc1ccc2c(NC3CCOC3C)ncnc2c1OC (single isomer, unassigned) [3 Stereoisomer 2] | 490 nM | 94 nM | 310 nM |
| COc1ccc2c(NC3CCOC3C)ncnc2c1OC (single isomer, unassigned) [3 Stereoisomer 3] | 890 nM | 100 nM | 390 nM |
| COc1ccc2c(NC3CCOC3C)ncnc2c1OC (single isomer, unassigned) [3 Stereoisomer 4] | 580 nM | 120 nM | 270 nM |
| COc1ccc2c(N(C)[C@@H]3CCOC3)ncnc2c1OC (single isomer, unassigned) [4 Stereoisomer 1] | 370 nM | 80 nM | 140 nM |
| COc1ccc2c(N(C)[C@H]3CCOC3)ncnc2c1OC (single isomer, unassigned) [4 Stereoisomer 2] | 1400 nM | 80 nM | 140 nM |
| COc1ccc2c(NC3(C)CCOC3C)ncnc2c1OC (single isomer, unassigned) [5 Stereoisomer 1] | 590 nM | 300 nM | 1100 nM |
| COc1ccc2c(NC3(C)CCOC3C)ncnc2c1OC (single isomer, unassigned) [5 Stereoisomer 2] | 240 nM | 87 nM | 400 nM |
| COc1ccc2c(NC3(C)CCOC3C)ncnc2c1OC (single isomer, unassigned) [5 Stereoisomer 3] | 33 nM | 6 nM | 67 nM |
| COc1ccc2c(NC3(C)CCOC3C)ncnc2c1OC (single isomer, unassigned) [5 Stereoisomer 4] | 77 nM | 15 nM | 140 nM |
| COc1ccc2c(NC3(C)CCOC3)ncnc2c1OC (single isomer, unassigned) [6 Stereoisomer 1] | 290 nM | 110 nM | 400 nM |
| COc1ccc2c(NC3(C)CCOC3)ncnc2c1OC (single isomer, unassigned) [6 Stereoisomer 2] | 140 nM | 37 nM | 110 nM |
| COc1ccc2c(N(C)C3(C)CCOC3C)ncnc2c1OC (single isomer, unassigned) [20 Stereoisomer 1] | 19 nM | 5 nM | 33 nM |
| COc1ccc2c(N(C)C3(C)CCOC3C)ncnc2c1OC (single isomer, unassigned) [20 Stereoisomer 2] | 26 nM | 4 nM | 27 nM |
| COc1ccc2c(N(C)C3(C)CCOC3C)ncnc2c1OC (single isomer, unassigned) [20 Stereoisomer 3] | 440 nM | 190 nM | 890 nM |
| COc1ccc2c(N(C)C3(C)CCOC3C)ncnc2c1OC (single isomer, unassigned) [20 Stereoisomer 4] | 120 nM | 39 nM | 170 nM |

Now from value to compound:

| IC50 (PDE1A) | IC50 (PDE1B) | IC50 (PDE1C) | Compound |
| --- | --- | --- | --- |
| 130 nM | 33 nM | 130 nM | COc1ccc2c(NC3(C)CCOC3C)ncnc2c1OC (mixture of isomers) [Compound 5, N-(2,3-dimethyltetrahydrofuran-3-yl)-7,8-dimethoxyquinazolin-4-amine] |
| 1200 nM | 230 nM | 590 nM | COc1ccc2c(NC3CCOC3)ncnc2c1OC (racemic) [Compound 1, 7,8-Dimethoxy-N-(tetrahydrofuran-3-yl)quinazolin-4-amine] |
| 2200 nM | 520 nM | 1300 nM | COc1ccc2c(N[C@@H]3COC[C@H]3OC)ncnc2c1OC (relative stereo) [Compound 17, Trans-7,8-dimethoxy-N-(4-methoxytetrahydrofuran-3-yl)quinazolin-4-amine] |
| 2300 nM | 1300 nM | 2600 nM | COc1ccc2c(N[C@@H]3COC[C@H]3O)ncnc2c1OC (relative stereo) [Compound 18, trans-4-((7,8-dimethoxyquinazolin-4-yl)amino)tetrahydrofuran-3-ol] |
| 4600 nM | 840 nM | – | COc1ccc2c(N[C@@H]3COC[C@@H]3O)ncnc2c1OC (relative stereo) [Compound 19, cis-4-((7,8-dimethoxyquinazolin-4-yl)amino)tetrahydrofuran-3-ol] |
| 1500 nM | 780 nM | 2800 nM | COc1ccc2c(NC3CCOC3(C)C)ncnc2c1OC (single isomer, unassigned) [21 Stereoisomer 1] |
| 1300 nM | 260 nM | 1600 nM | COc1ccc2c(NC3CCOC3(C)C)ncnc2c1OC (single isomer, unassigned) [21 Stereoisomer 2] |
| 110 nM | 28 nM | 79 nM | COc1ccc2c(N(C)C3CCOC3C)ncnc2c1OC (single isomer, unassigned) [22 Stereoisomer 1] |
| 210 nM | 35 nM | 55 nM | COc1ccc2c(N(C)C3CCOC3C)ncnc2c1OC (single isomer, unassigned) [22 Stereoisomer 2] |
| 1100 nM | 430 nM | 1500 nM | COc1ccc2c(N(C)C3CCOC3C)ncnc2c1OC (single isomer, unassigned) [22 Stereoisomer 3] |
| 1500 nM | 1100 nM | 780 nM | COc1ccc2c(N(C)C3CCOC3C)ncnc2c1OC (single isomer, unassigned) [22 Stereoisomer 4] |
| 240 nM | 70 nM | 500 nM | COc1ccc2c(N(C)C3(C)CCOC3)ncnc2c1OC (single isomer, unassigned) [23 Stereoisomer 1] |
| 160 nM | 55 nM | 170 nM | COc1ccc2c(N(C)C3(C)CCOC3)ncnc2c1OC (single isomer, unassigned) [23 Stereoisomer 2] |
| 360 nM | 84 nM | 140 nM | COc1ccc2c(N(C)C3CCOC3)ncnc2c1OC (stereo not shown) [Compound 4, 7,8-Dimethoxy-N-methyl-N-(tetrahydrofuran-3-yl)quinazolin-4-amine] |
| 150 nM | 62 nM | 160 nM | COc1ccc2c(NC3(C)CCOC3)ncnc2c1OC (stereo not shown) [Compound 6, 7,8-dimethoxy-N-(3-methyltetrahydrofuran-3-yl)quinazolin-4-amine] |
| 480 nM | 250 nM | 510 nM | CCN(c1ncnc2c(OC)c(OC)ccc12)[C@H]1CCOC1 [Compound 8, (S)-N-ethyl-7,8-dimethoxy-N-(tetrahydrofuran-3-yl)quinazolin-4-amine] |
| 280 nM | 180 nM | 540 nM | CCCN(c1ncnc2c(OC)c(OC)ccc12)[C@H]1CCOC1 [Compound 9, (S)-7,8-dimethoxy-N-propyl-N-(tetrahydrofuran-3-yl)quinazolin-4-amine] |
| 820 nM | 360 nM | 1400 nM | COc1ccc2c(N(Cc3ccccc3)[C@H]3CCOC3)ncnc2c1OC [Compound 10, (S)-N-benzyl-7,8-dimethoxy-N-(tetrahydrofuran-3-yl)quinazolin-4-amine] |
| 850 nM | 420 nM | 1600 nM | COc1ccc2c(N(CC3CC3)[C@H]3CCOC3)ncnc2c1OC [Compound 11, (S)-N-(cyclopropylmethyl)-7,8-dimethoxy-N-(tetrahydrofuran-3-yl)quinazolin-4-amine] |
| 1200 nM | 600 nM | 1500 nM | CCN(c1ncnc2c(OC)c(OC)ccc12)[C@@H]1CCOC1 [Compound 13, (R)—N-ethyl-7,8-dimethoxy-N-(tetrahydrofuran-3-yl)quinazolin-4-amine] |
| 270 nM | 180 nM | 360 nM | CCCN(c1ncnc2c(OC)c(OC)ccc12)[C@@H]1CCOC1 [Compound 14, (R)-7,8-dimethoxy-N-propyl-N-(tetrahydrofuran-3-yl)quinazolin-4-amine] |
| 2500 nM | 820 nM | 2100 nM | COc1ccc2c(N(CC3CC3)[C@@H]3CCOC3)ncnc2c1OC [Compound 15, (R)—N-(cyclopropylmethyl)-7,8-dimethoxy-N-(tetrahydrofuran-3-yl)quinazolin-4-amine] |
| 1200 nM | 410 nM | 1600 nM | COc1ccc2c(N(Cc3ccccc3)[C@@H]3CCOC3)ncnc2c1OC [Compound 16, (R)—N-benzyl-7,8-dimethoxy-N-(tetrahydrofuran-3-yl)quinazolin-4-amine] |
| – | 63 nM | 220 nM | CCC1(Nc2ncnc3c(OC)c(OC)ccc23)CCOC1 (stereo not shown) [Compound 24, N-(3-Ethyltetrahydrofuran-3-yl)-7,8-dimethoxyquinazolin-4-amine] |

Reference: patent US20150175584A1, “Quinazolin-THF-amines as PDE1 inhibitors” (H. LUNDBECK A/S, priority 2013, published 2015)
